Experimental data: PubChem BioAssay (NCI)
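GI50 = concentration required for 50% inhibition of growth. The concentration for full growth arrest is given as TGI.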

Columns and labels:
Assay in all cases: NCI tumour cell line growth inhibition, 384-well format
[1] = tested on: NCI-H226 lung
[2] = tested on: A498 renal
[3] = tested on: IGROV1 ovarian
[4] = tested on: U251 glioblastoma
[5] = tested on: T-47D breast
[6] = tested on: UACC-257 melanoma
[7] = tested on: NCI-H322M lung
[8] = tested on: NCI-H23 lung
[9] = tested on: KM12 colon
[10] = tested on: SNB-19 CNS
[11] = tested on: SW-620 colon
[12] = tested on: TK-10 renal
[13] = tested on: HS 578T breast

C[C@H](NC(=O)c1c(N)nn2cccnc12)c1cc2cccc(C#Cc3cnn(C)c3)c2c(=O)n1-c1ccccc1
GI50 [1]: 3.95 µM | TGI [1]: 16.3 µM | GI50 [2]: 2.72 µM | TGI [2]: 14.8 µM | GI50 [3]: 0.559 µM | TGI [3]: 2.1 µM | GI50 [4]: 12.3 µM | TGI [4]: 25.1 µM | GI50 [5]: 0.375 µM | TGI [5]: 2.41 µM | GI50 [6]: 8.67 µM | TGI [6]: 22.7 µM | GI50 [7]: 9.35 µM | TGI [7]: 23.9 µM | GI50 [8]: 4.63 µM | TGI [8]: 18.9 µM | GI50 [9]: 10.3 µM | TGI [9]: 23.2 µM | GI50 [10]: 13 µM | TGI [10]: 26.5 µM | GI50 [11]: 15.3 µM | TGI [11]: 28.7 µM | GI50 [12]: 3.93 µM | TGI [12]: 17.3 µM | GI50 [13]: 0.846 µM | TGI [13]: 6.01 µM
